Patent US8877748B2, “Heterocyclic fused anthraquinone derivatives, manufacturing method and pharmaceutical composition using thereof” (National Defense Medical Center, priority 2012, dated 2014)
One block for each compound: values may come before it.

Tests used:
[1] = system: PC-3 prostate cancer cell line; assay: SRB assay cell viability, PC-3 prostate cancer cell line; format: cell-based, human; details: Homo sapiens, PC-3 prostate cancer cell line, Table II prints no unit, μM printed, read-out: SRB assay: 50% inhibition of cancer cell proliferation of sample concentration (IC50) of PC-3 prostate cancer cell line
[2] = system: EKVX; assay: NCI one-dose screening, non-small cell lung cancer EKVX; format: cell-based, human; details: 10 μM
[3] = system: HOP-62; assay: NCI one-dose screening, non-small cell lung cancer HOP-62; format: cell-based, human; details: 10 μM
[4] = system: NCI-H226; assay: NCI one-dose screening, non-small cell lung cancer NCI-H226; format: cell-based, human; details: 10 μM
[5] = system: NCI-H23; assay: NCI one-dose screening, non-small cell lung cancer NCI-H23; format: cell-based, human; details: 10 μM
[6] = system: NCI-H522; assay: NCI one-dose screening, non-small cell lung cancer NCI-H522; format: cell-based, human; details: 10 μM
[7] = system: A549/ATCC; assay: NCI one-dose screening, non-small cell lung cancer A549/ATCC; format: cell-based, human; details: 10 μM
[8] = system: COLO 205; assay: NCI one-dose screening, colon cancer COLO 205; format: cell-based, human; details: 10 μM
[9] = system: HCC-2998; assay: NCI one-dose screening, colon cancer HCC-2998; format: cell-based, human; details: 10 μM
[10] = system: HCT-116; assay: NCI one-dose screening, colon cancer HCT-116; format: cell-based, human; details: 10 μM
[11] = system: HCT-15; assay: NCI one-dose screening, colon cancer HCT-15; format: cell-based, human; details: 10 μM
[12] = system: HT29; assay: NCI one-dose screening, colon cancer HT29; format: cell-based, human; details: 10 μM
[13] = system: SF-539; assay: NCI one-dose screening, CNS cancer SF-539; format: cell-based, human; details: 10 μM
[14] = system: SNB-19; assay: NCI one-dose screening, CNS cancer SNB-19; format: cell-based, human; details: 10 μM
[15] = system: SNB-75; assay: NCI one-dose screening, CNS cancer SNB-75; format: cell-based, human; details: 10 μM
[16] = system: U251; assay: NCI one-dose screening, CNS cancer U251; format: cell-based, human; details: 10 μM
[17] = system: LOX IMVI; assay: NCI one-dose screening, melanoma LOX IMVI; format: cell-based, human; details: 10 μM
[18] = system: MALME-3M; assay: NCI one-dose screening, melanoma MALME-3M; format: cell-based, human; details: 10 μM
[19] = system: M14; assay: NCI one-dose screening, melanoma M14; format: cell-based, human; details: 10 μM
[20] = system: UACC-62; assay: NCI one-dose screening, melanoma UACC-62; format: cell-based, human; details: 10 μM
[21] = system: UACC-257; assay: NCI one-dose screening, melanoma UACC-257; format: cell-based, human; details: 10 μM
[22] = system: SK-MEL-2; assay: NCI one-dose screening, melanoma SK-MEL-2; format: cell-based, human; details: 10 μM
[23] = system: SK-MEL-28; assay: NCI one-dose screening, melanoma SK-MEL-28; format: cell-based, human; details: 10 μM
[24] = system: SK-MEL-5; assay: NCI one-dose screening, melanoma SK-MEL-5; format: cell-based, human; details: 10 μM
[25] = system: IGROV1; assay: NCI one-dose screening, ovarian cancer IGROV1; format: cell-based, human; details: 10 μM
[26] = system: OVCAR-5; assay: NCI one-dose screening, ovarian cancer OVCAR-5; format: cell-based, human; details: 10 μM
[27] = system: OVCAR-8; assay: NCI one-dose screening, ovarian cancer OVCAR-8; format: cell-based, human; details: 10 μM
[28] = system: SK-OV-3; assay: NCI one-dose screening, ovarian cancer SK-OV-3; format: cell-based, human; details: 10 μM
[29] = system: 786-O; assay: NCI one-dose screening, renal cancer 786-O; format: cell-based, human; details: 10 μM
[30] = system: CAKI-1; assay: NCI one-dose screening, renal cancer CAKI-1; format: cell-based, human; details: 10 μM
[31] = system: ACHN; assay: NCI one-dose screening, renal cancer ACHN; format: cell-based, human; details: 10 μM
[32] = system: SN12C; assay: NCI one-dose screening, renal cancer SN12C; format: cell-based, human; details: 10 μM
[33] = system: TK-10; assay: NCI one-dose screening, renal cancer TK-10; format: cell-based, human; details: 10 μM
[34] = system: UO-31; assay: NCI one-dose screening, renal cancer UO-31; format: cell-based, human; details: 10 μM
[35] = system: RXF, 393; assay: NCI one-dose screening, renal cancer RXF, 393; format: cell-based, human; details: 10 μM
[36] = system: MCF7; assay: NCI one-dose screening, breast cancer MCF7; format: cell-based, human; details: 10 μM
[37] = system: MDA-MB-231/ATCC; assay: NCI one-dose screening, breast cancer MDA-MB-231/ATCC; format: cell-based, human; details: 10 μM
[38] = system: MDA-MB-468; assay: NCI one-dose screening, breast cancer MDA-MB-468; format: cell-based, human; details: 10 μM
[39] = system: NCl/ADR-RES; assay: NCI one-dose screening, breast cancer NCl/ADR-RES; format: cell-based, human; details: 10 μM; listed under Ovarian cancer
[40] = system: BT-549; assay: NCI one-dose screening, breast cancer BT-549; format: cell-based, human; details: 10 μM
[41] = system: T-47D; assay: NCI one-dose screening, breast cancer T-47D; format: cell-based, human; details: 10 μM
[42] = system: MDA, -MB-435; assay: NCI one-dose screening, breast cancer MDA, -MB-435; format: cell-based, human; details: 10 μM; listed under Melanoma
[43] = system: human tumor cell lines; assay: NCI one-dose screening, Mean / Delta / Range of growth percent over all tested cell lines; format: cell-based; details: 10 μM
[44] = system: CCRF-CEM; assay: NCI screening platform one-dose single concentration screening, leukemia CCRF-CEM; format: cell-based, human; details: 10 μM
[45] = system: HL-60, TB; assay: NCI one-dose screening, leukemia HL-60, TB; format: cell-based, human; details: 10 μM
[46] = system: MOLT-4; assay: NCI one-dose screening, leukemia MOLT-4; format: cell-based, human; details: 10 μM
[47] = system: SR; assay: NCI one-dose screening, leukemia SR; format: cell-based, human; details: 10 μM
[48] = system: PRMI-8226 cell line; assay: NCI one-dose screening, leukemia PRMI-8226; format: cell-based, human; details: 10 μM
[49] = system: K562cell line; assay: NCI one-dose screening, leukemia K562; format: cell-based, human; details: 10 μM
[50] = system: NCI-H322M; assay: NCI one-dose screening, non-small cell lung cancer NCI-H322M; format: cell-based, human; details: 10 μM; Non-small cell lung cancer
[51] = system: NCI-H460; assay: NCI one-dose screening, non-small cell lung cancer NCI-H460; format: cell-based, human; details: 10 μM
[52] = system: KM12; assay: NCI one-dose screening, colon cancer KM12; format: cell-based, human; details: 10 μM
[53] = system: SF-268; assay: NCI one-dose screening, CNS cancer SF-268; format: cell-based, human; details: 10 μM
[54] = system: SF-295; assay: NCI one-dose screening, CNS cancer SF-295; format: cell-based, human; details: 10 μM
[55] = system: OVCAR-3; assay: NCI one-dose screening, ovarian cancer OVCAR-3; format: cell-based, human; details: 10 μM
[56] = system: OVCAR-4; assay: NCI one-dose screening, ovarian cancer OVCAR-4; format: cell-based, human; details: 10 μM

IC50 [1]: > 15 µM
Structure (SMILES): CCOc1cccc(Sc2cc3c(c4nsnc24)C(=O)c2ccccc2C3=O)c1 [C50, 4-(3-ethoxy-phenylthio)anthra[2,1-c] [1,2,5]thiadiazol-6,11-dione]
Growth Percent EKVX [2]: 102.26% | Growth Percent HOP-62 [3]: 91.94% | Growth Percent NCI-H226 [4]: 90.47% | Growth Percent NCI-H23 [5]: 94.07% | Growth Percent NCI-H522 [6]: 98.19% | Growth Percent A549/ATCC [7]: 111.48% | Growth Percent COLO 205 [8]: 106.49% | Growth Percent HCC-2998 [9]: 105.49% | Growth Percent HCT-116 [10]: 100.93% | Growth Percent HCT-15 [11]: 103.08% | Growth Percent HT29 [12]: 106.40% | Growth Percent SF-539 [13]: 93.72% | Growth Percent SNB-19 [14]: 103.22% | Growth Percent SNB-75 [15]: 77.25% | Growth Percent U251 [16]: 109.69% | Growth Percent LOX IMVI [17]: 84.11% | Growth Percent MALME-3M [18]: 108.70% | Growth Percent M14 [19]: 103.80% | Growth Percent UACC-62 [20]: 108.85% | Growth Percent UACC-257 [21]: 126.28% | Growth Percent SK-MEL-2 [22]: 102.98% | Growth Percent SK-MEL-28 [23]: 112.20% | Growth Percent SK-MEL-5 [24]: 106.82% | Growth Percent IGROV1 [25]: 94.67% | Growth Percent OVCAR-5 [26]: 116.60% | Growth Percent OVCAR-8 [27]: 112.41% | Growth Percent SK-OV-3 [28]: 99.36% | Growth Percent 786-0 [29]: 100.25% | Growth Percent CAKI-1 [30]: 84.23% | Growth Percent ACHN [31]: 103.33% | Growth Percent SN12C [32]: 104.76% | Growth Percent TK-10 [33]: 125.26% | Growth Percent UO-31 [34]: 76.69% | Growth Percent RXF 393 [35]: 118.35% | Growth Percent MCF7 [36]: 78.81% | Growth Percent MDA-MB-231/ATCC [37]: 100.81% | Growth Percent MDA-MB-468 [38]: 108.00% | Growth Percent NCI/ADR-RES [39]: 101.92% | Growth Percent BT-549 [40]: 103.88% | Growth Percent T-47D [41]: 86.51% | Growth Percent MDA-MB-435 [42]: 106.07% | Growth Percent Delta ([43]; delta over all cell lines): 25.00% | Growth Percent Mean ([43]; mean over all cell lines): 101.69% | Growth Percent Range ([43]; range over all cell lines): 49.59%

Structure (SMILES): O=C1c2ccccc2C(=O)c2c1cc(Nc1ccc(Cl)cc1F)c1nsnc21 [C65, 4-(4-chloro-2-fluoro-phenylamino)anthra [2,1-c][1,2,5]thiadiazol-6,11-dione]
IC50 [1]: > 15 µM | Growth Percent CCRF-CEM [44]: 29.84% | Growth Percent HL-60(TB) [45]: 8.17% | Growth Percent MOLT-4 [46]: 20.18% | Growth Percent SR [47]: 23.58% | Growth Percent RPMI-8226 [48]: 40.73% | Growth Percent K562 [49]: 35.29% | Growth Percent EKVX [2]: 80.90% | Growth Percent HOP-62 [3]: 79.67% | Growth Percent NCI-H226 [4]: 74.35% | Growth Percent NCI-H23 [5]: 53.59% | Growth Percent NCI-H322M [50]: 91.66% | Growth Percent NCI-H460 [51]: 81.55% | Growth Percent NCI-H522 [6]: 47.67% | Growth Percent A549/ATCC [7]: 69.22% | Growth Percent COLO 205 [8]: 90.97% | Growth Percent HCC-2998 [9]: 97.85% | Growth Percent HCT-116 [10]: 52.51% | Growth Percent HCT-15 [11]: 45.61% | Growth Percent KM12 [52]: 83.42% | Growth Percent HT29 [12]: 98.33% | Growth Percent SF-268 [53]: 69.25% | Growth Percent SF-295 [54]: 86.04% | Growth Percent SF-539 [13]: 75.99% | Growth Percent SNB-19 [14]: 94.57% | Growth Percent SNB-75 [15]: 83.19% | Growth Percent U251 [16]: 43.08% | Growth Percent LOX IMVI [17]: 29.97% | Growth Percent MALME-3M [18]: 58.74% | Growth Percent M14 [19]: 118.36% | Growth Percent UACC-62 [20]: 85.80% | Growth Percent UACC-257 [21]: 50.45% | Growth Percent SK-MEL-2 [22]: 72.52% | Growth Percent SK-MEL-28 [23]: 87.69% | Growth Percent SK-MEL-5 [24]: 49.49% | Growth Percent IGROV1 [25]: 69.50% | Growth Percent OVCAR-3 [55]: 10.25% | Growth Percent OVCAR-4 [56]: −4.36% | Growth Percent OVCAR-5 [26]: 114.60% | Growth Percent OVCAR-8 [27]: 36.77% | Growth Percent 786-0 [29]: 114.97% | Growth Percent CAKI-1 [30]: 72.65% | Growth Percent ACHN [31]: 74.11% | Growth Percent SN12C [32]: 86.43% | Growth Percent TK-10 [33]: 110.93% | Growth Percent RXF 393 [35]: 66.49% | Growth Percent NCI/ADR-RES [39]: 48.31% | Growth Percent MDA-MB-435 [42]: 27.37%
